Marks after values point to notes of the source that are not given here. Where no end group is shown, it is not given here.
Key:
Format in all cases: in vivo, mouse
[1] = system: transgenic mice with myocardial-specific expression of PR39; assay: Endothelial cell mass (I131-labeled anti-PECAM antibody perfusion) and direct capillary counting in PR39 transgenic mice
Source text: (§1) To monitor PR39 expression, β-galactosidase was expressed bicistronically.
Three weeks after induction of PR39 expression in 6-8 week-old mice, a significant increase in the endothelial cell mass was observed as determined by in vivo perfusion with an I^131-labeled anti-PECAM antibody and direct capillary counting (Table 1).
(§2) Full-length porcine PR39 cDNA was inserted into a tetracycline-responsive vector system and a tetracycline transactivator was placed under transcriptional control of an α-myosin heavy chain promoter. The resulting tetracycline-responsive system was microinjected into fertilized mouse eggs. PCR analysis of genomic DNA from mouse tail tissue confirmed integration into the mouse genome. Independent transgenic lines were established and used for the analysis disclosed herein.

[2] = system: transgenic mice with myocardial-specific expression of PR39; assay: Heart size, myocardial mass and myocyte cross-sectional area after induction of PR39 expression
Source text: as §1
Six weeks after induction of PR39 expression, a large increase in the heart size was observed that was attributable to increased ventricular wall thickness and a mild increase in the left ventricle chamber size.
as §2

[3] = system: transgenic mice with myocardial-specific expression of PR39; assay: Echocardiographic and pressure-volume loop analysis of myocardial function
Description: as §1
To determine whether this endothelial-driven myocardial hypertrophy affected cardiac performance, echocardiographic and pressure-volume loop analysis of myocardial function was performed following induction of PR39 expression. In agreement with morphologic observations, heart expressing PR39 had somewhat larger left ventricular end-diastolic volume and end-diastolic diameter (Table 2). There was a significant enhancement of systolic performance as indicated by decreased left ventricle end-systolic volume and increases in the […], +dP/dT, maximal-generated left ventricle pressure and cardiac output (Table 2). Unexpectedly, there was also a significant improvement in diastolic function as indicated by reduced tau and −dP/dt (Table 2).
To evaluate the robustness of the observed increase in myocardial size and functional improvement, PR39 expression was shut off six weeks after its induction and the mice were re-examined three weeks later. Both the increase in the myocardial mass and improvements in the systolic and diastolic function were maintained at that time.
as §2

[4] = system: ANF, βMHC and skeletal α-actin gene expression; assay: Expression of myocyte hypertrophy markers; conditions: 6 weeks after PR39 expression induction (not at 3 weeks)
Source text: (§3) To gain further insight into the nature of the hypertrophy process, expression of myocyte hypertrophy markers was examined. […] These findings are consistent with an increase in endothelial cell mass, […] an increase in cardiac size, largely driven by myocyte hypertrophy accompanied by an induction of a typical hypertrophic response.

[5] = system: endothelial cells and cardiac myocytes; assay: Immunocytochemical staining with anti-Ki67 antibody (proliferation); conditions: after induction of PR39 expression
Source text: as §3

[6] = six weeks after induction of PR39 expression
[7] = six weeks following induction of PR39 expression
[8] = six weeks induction of PR39 expression followed by 3 weeks repression

## PR39: Angiogenic proline/arginine-rich peptide; full-length porcine PR39 cDNA expressed myocardial-specifically in tetracycline-regulated transgenic mice (mature peptide SEQ ID NO:3) (RRRPRPPYLPRPRPPPFFPPRLPPRIPPGFPPRFPPRFP-NH2; listed as Sus scrofa)
[1]; [6]
  Capillary density per gram of myocardial tissue: returned to values seen in control mice
[1]; three weeks after induction of PR39 expression in 6-8 week-old mice
  Capillary Density (Capillary/50 μm^2): 5.90 ± 0.12 Capillary/50 μm^2
[1]; three weeks after induction of PR39 expression in 6-8 week-old mice, endothelial cell mass
  Anti-PECAM (μg antibody/gram tissue): 0.52 ± 0.07 μg antibody/gram tissue
[2]; cardiac-specific overexpression of PR39
  Increase in myocardial mass: 50%
[2]; [6]
  Heart size: 0.15±0.01 gram
  Myocyte area increase (cross-sectional area of enzymatically dispersed cardiac myocytes): 30%
[2]; six weeks after induction of PR39 expression, vs non-transgenic mice
  Heart enlargement: 35%
[2]; six weeks induction, then 3 weeks repression of PR39 expression
  Heart size after repression of PR39 expression: remained unchanged
[3]; PR39 expression shut off six weeks after induction, re-examined three weeks later
  Increase in myocardial mass and improvements in systolic and diastolic function after shut-off: maintained
[3]; [7]
  Left Ventricle Mass: 74 ± 1.1^a mg
  Left Ventricle internal dimension systolic: 2.28 ± 0.20^c mm
[3]; [8]
  Cardiac output: 9046 ± 239^a μL/minute
  Ejection fraction: 85.06 ± 0.76^a %
  End diastolic pressure: 7.17 ± 0.17^a mmHg
  End diastolic volume: 18.78 ± 0.31^a μL
  End systolic pressure: 70.49 ± 0.99^b mmHg
  End systolic volume: 3.26 ± 0.15^a μL
  Maximum dP/dt: 8809 ± 167^a mmHg/second
  Maximum pressure: 92.26 ± 0.54^a mmHg
  Maximum volume: 20.15 ± 0.29^a μL
  Minimum dP/dt: −7503 ± 123^a mmHg/second
  Minimum pressure: 3.79 ± 0.15^a mmHg
  Minimum volume: 2.86 ± 0.13^a μL
  Stroke volume: 17.29 ± 0.32^a μL
  Tau-w: 6.0 ± 0.1^a msec
[4]
  ANF, βMHC and skeletal α-actin gene expression: marked increase
[5]
  Proliferation of endothelial cells between myocyte bundles (anti-Ki67): increased proliferation
[5]; multiple sections
  Proliferation of cardiac myocytes (anti-Ki67): no proliferation
